Test results as given in US9453014B2, “Cyclic amide derivatives as inhibitors of 11-β-hydroxysteroid dehydrogenase and uses thereof” (CONNEXIOS LIFE SCIENCES PVT. LTD., priority 2011, dated 2016).

Biological target: T1, human full length HSD11 β 1 (Homo sapiens, UniProt P28845)
T1 construct: transient expression of human full length HSD11 β 1 expression vector; host or cells: CHO cells (transient transfection)
Assay: In Vitro HSD11β1 Inhibition Assay
Format: cell-based
Settings: CHO cells transiently expressing human HSD11β1; 200 nM cortisone+500 uM NADPH overnight; cortisone to cortisol by LC/MS-MS; read-out: 11βHSD1 (IC50)
Outline: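 CHO cells transiently transfected with human full-length HSD11β1 were re-seeded after 24 h and, 24 h later, incubated overnight with 200 nM cortisone plus 500 uM NADPH and inhibitor. Cortisone-to-cortisol conversion was measured by LC/MS-MS. IC50 from an 8-point log concentration–inhibition curve.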

T1 sequence (P28845 whole entry): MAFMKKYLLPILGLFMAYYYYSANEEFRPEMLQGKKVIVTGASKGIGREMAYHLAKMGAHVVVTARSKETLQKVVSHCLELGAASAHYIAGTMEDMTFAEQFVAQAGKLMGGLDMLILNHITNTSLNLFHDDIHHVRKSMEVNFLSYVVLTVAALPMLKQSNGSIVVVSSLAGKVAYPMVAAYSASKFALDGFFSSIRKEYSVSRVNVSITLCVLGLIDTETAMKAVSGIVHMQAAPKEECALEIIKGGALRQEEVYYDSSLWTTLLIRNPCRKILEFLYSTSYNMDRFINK

Row | SMILES | IC50 [nM]
1 | CC(CC(=O)N1CCC(C(=O)O)C2CCCCC21)c1c[nH]c2cccc(Cl)c12 (stereo not shown) [Example 158, 1-[3-(4-chloro-1H-indol-3-yl)butanoyl]decahydroquinoline-4-carboxylic acid] | > 250
2 | CC(C)C(CC(=O)N1CCC(C(=O)O)C2CCCCC21)c1c[nH]c2ncccc12 (stereo not shown) [Example 163, 1-[4-methyl-3-(1H-pyrrolo[2,3-b]pyridin-3-yl)pentanoyl]decahydro quinoline-4-carboxylic acid] | > 250
3 | CC(CC(=O)N1CCC(C(=O)O)C2CCCCC21)c1c[nH]c2ncccc12 (stereo not shown) [Example 165, 1-[3-(1H-pyrrolo[2,3-b]pyridin-3-yl)butanoyl]decahydroquinoline-4-carboxylic acid] | > 250
4 | CC(CC(=O)N1CCCC2CCCCC21)n1nnc2c(Cl)cccc21 (stereo not shown) [Example 166, 3-(4-chloro-1H-benzotriazol-1-yl)-1-(octahydroquinolin-1(2H)-yl)butan-1-one] | > 250
5 | Cc1cccc2c1nnn2C(C)CC(=O)N1CCC(C(=O)O)C2CCCCC21 (stereo not shown) [Example 168, 1-[3-(4-methyl-1H-benzotriazol-1-yl)butanoyl]decahydroquinoline-4-carboxylic acid] | > 250
6 | Cc1cccc2nn(C(C)CC(=O)N3CCC(C(=O)O)C4CCCCC43)nc12 (stereo not shown) [Example 169, 1-[3-(4-methyl-2H-benzotriazol-2-yl)butanoyl]decahydroquinoline-4-carboxylic acid] | > 250
7 | O=C(O)C1CCC2CCCCC2N1C(=O)CC(c1cccs1)c1c[nH]c2cccc(F)c12 (stereo not shown) [Example 170, 1-[3-(4-fluoro-1H-indol-3-yl)-3-(thiophen-2-yl)propanoyl]decahydroquinoline-2-carboxylic acid] | > 250
8 | CC(CC(=O)N1CCC(C(=O)O)C2CCCCC21)c1c[nH]c2nccc(Cl)c12 (stereo not shown) [Example 171, 1-[3-(4-chloro-1H-pyrrolo[2,3-b]pyridin-3-yl)butanoyl]decahydroquinoline-4-carboxylic acid] | > 250
9 | Cc1cccc2c1nnn2C(CC(=O)N1CCCC2CCCCC21)C(C)C (stereo not shown) [Example 172, 4-methyl-3-(4-methyl-1H-benzotriazol-1-yl)-1-(octahydroquinolin-1(2H)-yl)pentan-1-one] | > 250
10 | O=C(O)C1CCC2CCCCC2N1C(=O)CC(c1ccccc1)c1c[nH]c2cc(F)ccc12 (stereo not shown) [Example 174, 1-[3-(6-fluoro-1H-indol-3-yl)-3-phenylpropanoyl]decahydroquinoline-2-carboxylic acid] | > 250
11 | O=C(O)C1CC2CCCCC2N(C(=O)CC(c2ccccc2)c2c[nH]c3cc(F)ccc23)C1 (stereo not shown) [Example 175, 1-[3-(6-fluoro-1H-indol-3-yl)-3-phenylpropanoyl]decahydroquinoline-3-carboxylic acid] | > 250

Now those with a lower IC50, led by results:

Row | IC50 [nM] | SMILES
12 | < 100 | O=C(O)C1CCN(C(=O)CC(c2ccc(F)cc2)c2c[nH]c3cccc(F)c23)C2CCCCC12 (stereo not shown) [Example 157, 1-[3-(4-fluoro-1H-indol-3-yl)-3-(4-fluorophenyl)propanoyl]decahydroquinoline-4-carboxylic acid]
13 | 100 to 150 | CC(C)C(CC(=O)N1CCCC2CCCCC21)c1c[nH]c2ncccc12 (stereo not shown) [Example 164, 4-methyl-1-(octahydroquinolin-1(2H)-yl)-3-(1H-pyrrolo[2,3-b]pyridin-3-yl)pentan-1-one]
14 | < 100 | CC(CC(=O)N1CCCC2CCCCC21)n1nc2cccc(Cl)c2n1 (stereo not shown) [Example 167, 3-(4-chloro-2H-benzotriazol-2-yl)-1-(octahydroquinolin-1(2H)-yl)butan-1-one]
15 | < 100 | CC(CC(=O)N1CCCC2CCCCC21)c1nc2c(Cl)cccc2s1 (stereo not shown) [Example 173, 3-(4-chloro-1,3-benzothiazol-2-yl)-1-(octahydroquinolin-1(2H)-yl)butan-1-one]
16 | 150 to 200 | O=C(O)C1CC2CCCCC2N(C(=O)CC(c2ccccc2)c2c[nH]c3cccc(F)c23)C1 (stereo not shown) [Example 176, 1-[3-(4-fluoro-1H-indol-3-yl)-3-phenylpropanoyl]decahydroquinoline-3-carboxylic acid]
